Experiments:
XMuLV [1] = test: Viral inactivation by 1% detergent in XMuLV-spiked BisAb cell harvest media, plaque assay (Example 1); type: cell-based, murine xenotropic leukemia virus-related virus; set-up: Virus concentration: unit not given here; settings: for Log10 reduction value / Virus concentration: BisAb harvest media; for Virus concentration: room temperature; for viral inactivation kinetics: in words, compared to Laureth-9
Description: The viral inactivation of four detergents was examined using a CHO-derived cell harvest material for a monovalent bispecific human IgG1 monoclonal antibody. Brij L9 (Laureth-9), Myrj S25, and Brij S20 were sourced from Croda International Plc. (East Yorkshire, United Kingdom). Polidocanol 600 (Laureth-9) was sourced from Schärer & Schläpfer AG (Rothrist, Switzerland).
(§1) Harvest media was spiked with murine xenotropic leukemia virus-related virus (XMuLV) stock prior to the detergent spike.
(§2) Conditioned cell harvest media containing a monovalent bispecific human IgG1 monoclonal antibody (BisAb) was spiked with 8.5 logs of XMuLV. A sample of the virus spiked harvest media was collected and used as a hold control to determine the rate of viral inactivation without detergent.
(§3) A 10% (w/w) stock solution was made by dissolving detergent into 50 mM Tris pH 7.4. A cell harvest sample of BisAb media spiked with XMuLV was spiked to a 1% detergent concentration using an appropriate amount of the 10% stock solution. The hold control and reaction samples were incubated at room temperature. Samples were collected at 1, 10, 60, and 120 minutes and diluted 1:50 in McCoy medium to stop the viral inactivation reaction. Diluted samples and hold control were assayed for viral concentration using a plaque assay.

XMuLV [2] = test: Viral inactivation by Laureth-9 in XMuLV-spiked BisAb or BisFusion conditioned media (Example 2); type: cell-based, murine xenotropic leukemia virus-related virus
Method: as §1, §2, §3
A study was performed essentially as described in Example 1 to examine the viral inactivation using detergent concentrations of 1% Brij L9 (Laureth-9, sourced from Croda International Plc., East Yorkshire, United Kingdom) and 1% Polidodecanol 600 (Laureth-9, sourced from Schärer & Schläpfer AG, Rothrist, Switzerland) for CHO-derived conditioned media for BisAb and 1% or 0.1% Brij L9 for CHO-derived conditioned media for a bispecific fusion protein (BisFusion).

AAV6.2 cell paste = test: Detergent lysis of AAV6.2 cell paste slurry, lysate AAV titer by qPCR; type: cell-based; settings: for Lysate AAV6 Titer: 0.5% detergent, AAV6 cell paste lot A8498, 1 hour at RT
Method: (§4) An AAV6.2 cell paste slurry was generated and stored at −80° C. Brij L9 (Laureth-9) was sourced from Croda International Plc. (East Yorkshire, United Kingdom). Triton X-100 was sourced from Spectrum Chemical (New Brunswick, NJ). Capto AVB resin was sourced from GE Healthcare (Piscataway, NJ). COSP filters were obtained from EMD Millipore (Burlington, MA). Sartopore 2 XLG, 0.8/0.2 um filters were obtained from Sartorius Stedim Biotech GmbH (Gottingen, Germany). All the buffer salts were sourced from Avantor Performance Chemicals (Center Valley, Pennsylvania).
(§5) For detergent lysis, the AAV6.2 cell paste was diluted to a 10% slurry with 20 mM Tris, 200 mM NaCl, 2 mM MgCl2, pH 7.5. 10% (w/w) detergent stock solution was spiked into cell slurry to bring final detergent concentration to 0.5% (v/w). Benzonase was spiked to 10 U/ml into cell slurry mixture and mixed slowly at RT for 1 hour.
(§6) AAV Purification was performed using a Capto AVB affinity column. Purification was controlled by Unicorn 7.0 software on an AKTA AVANT purchased from GE Healthcare (Piscataway, NJ). COSP POD filter was flushed with 20 mM Tris, 500 mM NaCl, 2 mM MgCl2, pH 7.5. 10% AAV6.2 cell lysate was clarified with COSP followed by Sartopore 2 XLG, 0.8/0.2 um filter. Capto AVB column was equilibrated with 20 mM Tris, 200 mM NaCl, 2 mM MgCl2, pH 7.5 for 3 column volumes (CV). Clarified cell lysate was loaded with residence time of 6 min. Column was re-equilibrated with 20 mM Tris, 200 mM NaCl, 2 mM MgCl2, pH 7.5 for 4 CV. Product was eluted from column with 50 mM citric acid, 500 mM NaCl, 2 mM MgCl2, pH 2.5. Eluate pH was adjusted to pH 8.0 with 1 M Tris/HCl, pH 8.0 AAV Titer was determined by centrifuging 10% lysate at 13,000 rpm for 10 min and collecting the supernatant. AAV titer was determined with in-house qPCR method.

AAV6.2 = test: AAV purification on Capto AVB after cell lysis, eluate titer and infectivity; settings: for CaptoAVB Elu Infectivity / CaptoAVB Elu Titer: detergent cell lysis, cell paste lot A8489 (Brij-L9), A8102 (Triton X100)
Method: as §4, §5
For freeze-and-thaw lysis, the cell paste slurry was put through 2 freeze-thaw cycles at −80° C. and RT. AAV lysate was diluted to 10% slurry with 20 mM Tris, 200 mM NaCl, 2 mM MgCl2, pH 7.5. Benzonase was spiked to 10 U/ml into cell slurry mixture and mixed slowly at RT for 1 hour.
as §6

aquatic organisms = settings: cited from earlier work
enveloped virus = settings: cited from earlier work
[3] = 0 min, 0.1% detergent, BisFusion
[4] = 10 min, 0.1% detergent, BisFusion
[5] = 10 min, 1% detergent, BisFusion
[6] = 60 min, 0.1% detergent, BisFusion
[7] = 60 min, 1% detergent, BisFusion
[8] = <1 min, 0.1% detergent, BisFusion
[9] = <1 min, 1% detergent, BisFusion

## CCCCCCCCCCCCOCCOCCOCCOCCOCCOCCOCCOCCOCCO [Brij L9, 3,6,9,12,15,18,21,24,27-nonaoxanonatriacontan-1-ol]
XMuLV [1]; 0 min
  Log10 reduction value: 0 Log10
  Virus concentration: 7.79
XMuLV [1]; 10 min
  Log10 reduction value: >4.61 Log10
  Virus concentration: <3.18
XMuLV [1]; 60 min
  Log10 reduction value: >4.61 Log10
  Virus concentration: <3.18
XMuLV [1]; 120 min
  Log10 reduction value: >4.61 Log10
  Virus concentration: <3.18
XMuLV [1]
  viral inactivation kinetics: improved, desirable viral inactivation kinetics
XMuLV [2]; [3]
  Log10 reduction value: 0 Log10
  Virus concentration: 7.21
XMuLV [2]; 0 min, 1% detergent, BisAb
  Log10 reduction value: 0 Log10
  Virus concentration: 7.00
XMuLV [2]; 0 min, 1% detergent, BisFusion
  Log10 reduction value: 0 Log10
  Virus concentration: 7.21
XMuLV [2]; [4]
  Log10 reduction value: >3.88 Log10
  Virus concentration: <2.88
XMuLV [2]; 10 min, 1% detergent, BisAb
  Log10 reduction value: >4.07 Log10
  Virus concentration: <2.88
XMuLV [2]; [5]
  Log10 reduction value: >3.84 Log10
  Virus concentration: <2.88
XMuLV [2]; [6]
  Log10 reduction value: >3.88 Log10
  Virus concentration: <2.88
XMuLV [2]; 60 min, 1% detergent, BisAb
  Log10 reduction value: >4.07 Log10
  Virus concentration: <2.88
XMuLV [2]; [7]
  Log10 reduction value: >3.84 Log10
  Virus concentration: <2.88
XMuLV [2]; [8]
  Log10 reduction value: >3.88 Log10
  Virus concentration: <2.88
XMuLV [2]; <1 min, 1% detergent, BisAb
  Log10 reduction value: >4.03 Log10
  Virus concentration: <2.88
XMuLV [2]; [9]
  Log10 reduction value: >3.84 Log10
  Virus concentration: <2.88
AAV6.2 cell paste
  Lysate AAV6 Titer: 11.04 Log10 vg/mL
AAV6.2 cell paste; in words, compared with Triton X-100
  cell lysis for AAV purification: as effective for cell lysis for AAV purification as Triton X-100
AAV6.2
  CaptoAVB Elu Infectivity: 10.5 Log10 TCID50/mL
  CaptoAVB Elu Titer: 12.2 Log10 vg/mL
AAV6.2; in words
  impact on AAV infectivity: does not show any negative impact

## CCCCCCCCCCCCOCCOCCOCCOCCOCCOCCOCCOCCOCCO [Polidodecanol 600, 3,6,9,12,15,18,21,24,27-nonaoxanonatriacontan-1-ol]
XMuLV [1]; 0 min
  Log10 reduction value: 0 Log10
  Virus concentration: 7.79
XMuLV [1]; 10 min
  Log10 reduction value: >4.61 Log10
  Virus concentration: <3.18
XMuLV [1]; 60 min
  Log10 reduction value: >4.61 Log10
  Virus concentration: <3.18
XMuLV [1]; 120 min
  Log10 reduction value: >4.61 Log10
  Virus concentration: <3.18
XMuLV [1]; <1 min
  Log10 reduction value: >4.61 Log10
XMuLV [2]; 0 min, 1% detergent, BisAb
  Log10 reduction value: 0 Log10
  Virus concentration: 7.00
XMuLV [2]; 10 min, 1% detergent, BisAb
  Log10 reduction value: >4.07 Log10
  Virus concentration: <2.88
XMuLV [2]; 60 min, 1% detergent, BisAb
  Log10 reduction value: >4.07 Log10
  Virus concentration: <2.88
XMuLV [2]; <1 min, 1% detergent, BisAb
  Log10 reduction value: >4.03 Log10
  Virus concentration: <2.88

## CC(C)(C)CC(C)(C)c1ccc(O)cc1 [octlyphenol]
Aquatic organisms
  endocrine disruption: can behave as endocrine disrupters in aquatic organisms

## Triton X-100 [reference compound]
AAV6.2 cell paste
  Lysate AAV6 Titer: 11.03 Log10 vg/mL
AAV6.2
  CaptoAVB Elu Infectivity: 9.8 Log10 TCID50/mL
  CaptoAVB Elu Titer: 11.8 Log10 vg/mL
Enveloped virus; diverse set of experimental conditions
  enveloped virus inactivation: greater than 4 logs
Aquatic organisms
  endocrine disruption: can behave as endocrine disrupters in aquatic organisms

## polyoxyethylene (20) stearyl ether [Brij S20, reference compound]
XMuLV [1]; 0 min
  Log10 reduction value: 0 Log10
  Virus concentration: 7.79
XMuLV [1]; 10 min
  Log10 reduction value: 2.90 Log10
  Virus concentration: 4.89
XMuLV [1]; 60 min
  Log10 reduction value: >4.61 Log10
  Virus concentration: <3.18
XMuLV [1]; 120 min
  Log10 reduction value: >4.61 Log10
  Virus concentration: <3.18
XMuLV [1]; <1 min
  Log10 reduction value: 0.89 Log10
  Virus concentration: 6.9
XMuLV [1]
  viral inactivation kinetics: significantly slower

## polyoxyethylene (23) lauryl ether [Brij 35]
Enveloped virus; finding of Conley et al. (2017)
  effectiveness for viral inactivation: not effective for viral inactivation
